Measured values reported in patent US9802880B2, “Cannabigerol derivatives” (VIVACELL BIOTECHNOLOGY ESPAÑA S.L., priority 2014, dated 2017).

Experiments:
[1] = tested on: MO3.13 cells; test: Cytotoxicity, MTT assay, MO3.13 cells; type: cell-based; settings: 24 h, FIG. 3C
Method: (§1) The cell lines N2a (A), HT22 (B) and MO3.13 (C) cells were incubated for 24 h with the indicated doses of CBG-Q (Compound I) versus compounds II to XII, and cell viability was quantified by MTT assay. […] Control was set as 100% and data were referred to that value.
(§2) Electrophilic quinones induce cytotoxicity and activate the Nrf2 pathway, a cellular sensor of reactive oxygen species generation. In FIG. 3 it is analyzed the induced cell death in three different types of cells (N2a, HT22 and MO3.13) by compounds CBG-Q (compound I) and compounds (II) to (XII).
(§3) N2A, HT22 and MO3.13 cell viability was determined by the MTT assay. Briefly, cells were seeded at a density of 10^4 cells/well in 96-well plates, 200 μl cell suspension per well, and cultured for 24 hours. Cells were then incubated with several concentrations of the compounds for 24 hours. […] Finally the absorbance was measured at 550 nm using a TriStar LB 941 (Berthold Technologies, GmbH & Co. KG). […] The cell lines N2a (FIG. 3A), HT22 (FIG. 3B) and MO3.13 (FIG. 3C) cells were incubated for 24 h with the indicated doses of compounds CBG-Q (compound I) and compounds (II) to (XII), and cell viability was quantified by MTT assay. Results are shown as mean±S.D. from at least three independent experiments, and expressed as percentage of cell viability against the control sample (−). […]

[2] = tested on: N2a cells; test: Cytotoxicity, MTT assay, N2a cells; type: cell-based; settings: 24 h, FIG. 3A
Method: as §1, §2, §3

[3] = tested on: Nrf2; test: Nrf2 transcriptional assay in HaCaT-ARE-Luc cells; type: cell-based; settings: 6 h, FIG. 4
Method: HaCaT-ARE-Luc cells were incubated for 6 h with compounds CBG-Q compound I) and with compounds I to VI (A) or with compounds VII to XII (B) at the indicated concentrations, and protein lysates were prepared and analysed for luciferase activity. The pro-oxidant tert-Butylhydroquinone (tBHQ) at 20 μM, a compound that induces cellular oxidative stress, was used as positive control. […] The results ratify that the reactive electrophilic activity associated to CBG-Q (compound I) is missing in all the compounds (derivatives in position 2) described in the present invention.
To study the activity of the compounds on the Nrf2 pathway we generated the HaCaT-ARE-Luc cell line. Nqo1 ARE-Luc reporter plasmid and pPGK-Puro plasmid were co-transfected into HaCat cells using Lipofectamine© 2000 transfection reagent (Life Technologies, Carlsbad, Ca, USA). Stable transformants were selected and maintained in RPMI 1640 containing 10% FBS, 1% penicillin-streptomycin and […] puromycin. HaCaT-ARE-Luc cells were incubated for 6 h with CBG-Q (compound I) and with compounds (II)-(VI) (A) or with compounds (VII)-(XII) (B) at the indicated concentrations, and protein lysates were prepared and analysed for luciferase activity as described in example 1. The prooxidant tert-Butylhydroquinone (tBHQ) at 20 μM was used as positive control. […]

[4] = tested on: HT22 cells; test: Cytotoxicity, MTT assay, HT22 cells; type: cell-based; settings: 24 h, FIG. 3B
Method: as §1, §2, §3

[5] = tested on: 3NP-lesioned mice; test: Huntington's disease 3NP model, behavioral score; type: in vivo, C57BL/6 mice; settings: 10 mg/kg i.p., four injections, FIG. 9
Method: Mice were subjected to behavioral tests for determining their neurological status after the treatment with compounds I (10 mg/kg) (A), III (10 mg/kg) (B) and XII (10 mg/kg) (C). Hind limb clasping, Locomotor activity, Hind limb dystonia and Truncal Dystonia were rated from 0 to 2 based on severity: a score of 0 typically indicates normal function and 2 seriously affected. Values are expressed as means±SEM for 8 animals per group.
(§4) Lesions of the striatum were induced with 3-NP in adult (16 week old; 30 g) male C57BL/6 mice (Harlan Ibérica, Barcelona, Spain). To this end, mice were subjected to seven intraperitoneal (i.p.) injections of 3NP (one injection each 12 hours) at a dose of 50 mg/kg (prepared in phosphate-buffered saline) for 3 days. These animals and their respective non-lesioned controls were used for pharmacological studies with compounds CBG-Q (compound I) and with compounds III and XII (FIG. 9). At least 6-8 animals were used per experimental group. Treatments consisted of four i.p. injections of the compounds at the indicated doses (one injection each 24 hours), or vehicle (DMSO 0.2%, BSA 5% in PBS) 30 min before the injections of 3NP. All animals were euthanized 12 hours after the last 3NP injection. Once euthanized, animals were dissected and their brains were rapidly removed. The right hemisphere was used to dissect the striatum, which was quickly frozen in RNAlater (Sigma-Aldrich, Germany) to analyzed inflammatory markers were by Real Time PCR. The left hemisphere was fixed in fresh 4% paraformaldehyde (in 0.1M phosphate buffered-saline) for 48 hours at 4° C. and embedded in paraffin wax for histological analysis. Mice were subjected to behavioral tests for determining their neurological status. We evaluated the general locomotor activity, the hindlimb clasping and dystonia, and the truncal dystonia. All behavioral tests were conducted prior to drug injections to avoid acute effects of the compounds under investigation.

[6] = tested on: N2a cells; test: Neuroprotection assay, glutamate-induced excitotoxicity in N2a cells; type: cell-based; settings: 1 h pre-incubation, then 5 mM glutamate 24 h, FIG. 5
Method: N2a cells were pre-incubated for 1 h with compounds (II) to (V) and (XII) at the indicated concentrations. Then, cells were treated for 24 h with 5 mM glutamate to induce excitotoxicity, or cytotoxicity in neuronal cells induced by neurotransmitters. Cell viability was quantified by MTT assay. […] Control was set as 100% and data were referred to that value.
Cultured N2A cells were pre-incubated with the compounds II, III, IV, V and XII at the indicated concentrations for 1 h and then treated with 5 mM glutamate to induce excitotoxicity during 24 h (FIG. 5). Cytotoxicity was determined by the MTT method as described in example 3. Results are shown as mean±S.D. from at least three independent experiments, and expressed as percentage of cell viability against the control sample (−). Control was set as 100% and data were referred to that value.

[7] = tested on: EAE mice; test: Experimental autoimmune encephalomyelitis (EAE), clinical score; type: in vivo, C57BL/6 mice; settings: 5 mg/kg daily from day 6 post-immunization for 21 days, FIG. 8
Method: C57BL/6 mice were immunized with MOG35-55 and their clinical score evaluated daily. Mice were treated daily with compound (III) (10 mg/kg) on day 6 post-immunization and the 21 following days. […] Values are expressed as means±SEM for 10 animals per group.
C57BL/6 mice were immunized with MOG35-55 and their clinical score evaluated daily. Mice were treated daily with compound (XII) (5 mg/kg) on day 6 post-immunization and the 21 following days. […] Values are expressed as means±SEM for 6 animals per group.
EAE was induced in female C57BL/6 mice at 6-8 weeks of age by subcutaneous immunization with myelin oligodendrocyte glycoprotein polypeptide (MOG35-55) (300 μg) and 200 μg of Mycobacterium tuberculosis (H37Ra Difco, Franklin Lakes, N.J., USA) in a 1:1 mix with […] Freund's adjuvant (CFA, Sigma-Aldrich, Madrid, Spain). On the same day and 2 days later, mice were injected intraperitoneally (ip) with 200 ng of pertussis toxin (Sigma-Aldrich, Madrid, Spain) in 0.1 ml PBS. […] Treatment started at day 6 post-immunization (p.i.) and consisted in daily injections of compounds III (FIG. 6) and XII (FIG. 8) at the indicated doses or of the vehicle alone (DMSO/PBS) for the following 21 days. The mice were examined daily for clinical signs of EAE and disease scores were measured as follows: 0, no disease; 1, limp tail; 2, limp tail and hind limb weakness; 3, hind limb paralysis; 4, hind limb and front limb paralysis; 5, moribund and death. All animals were sacrificed 28 days (p.i.) for further analysis. Once sacrificed, animals were dissected and their spinal cords were rapidly removed and quickly frozen in RNAlater (Sigma-Aldric, Germany).

[8] = tested on: COX-2, iNOS, TNFα and IL-6; test: 3NP model, inflammatory marker mRNAs in the striatum (real-time PCR); type: in vivo, C57BL/6 mice; settings: 3NP-treated mice, 10 mg/kg, FIG. 10 and FIG. 11
Method: Gene expression of inflammatory markers including COX-2, TNFα, IL-6 and iNOS, was down regulated in 3NP+compound III (10 mg/kg) treated mice compared with 3NP+Vehicle mice. Expression levels were calculated using the 2^−ΔΔct method. Values are expressed as means±SEM for 6 animals per group.
Gene expression of inflammatory markers including COX-2, TNFα, IL-6 and iNOS, was down regulated in 3NP+XII (10 mg/kg) treated mice compared with 3NP+Vehicle mice. Expression levels were calculated using the 2^−ΔΔct method. Values are expressed as means±SEM for 6 animals per group.
Lesions of the striatum were induced with 3-NP in adult (16 week old; 30 g) male C57BL/6 mice (Harlan Ibérica, Barcelona, Spain). […] The right hemisphere was used to dissect the striatum, which was quickly frozen in RNAlater (Sigma-Aldrich, Germany) to analyzed inflammatory markers were by Real Time PCR. […] We evaluated the general locomotor activity, the hindlimb clasping and dystonia, and the truncal dystonia. […]
Total RNA was isolated from striata (3NP model) or spinal cord (EAE model) using RNeasy Lipid Tissue Mini Kit (Qiagen, GmbH). The total amount of RNA extracted was quantitated by spectrometry at 260 nm and its purity from the ratio between the absorbance values at 260 and 280 nm. […] Expression levels were calculated using the 2^−ΔΔct method.

[9] = tested on: striatal neurons, astrocytes and microglia; test: 3NP model, immunohistochemistry of striatum (NeuN, GFAP, Iba-1); type: in vivo, C57BL/6 mice; settings: 3NP-lesioned mice, 10 mg/kg
Method: NeuN (neuronal marker), GFAP (astrocytes marker), and Ibal (microglia marker) were detected by immunostaining in the coronal sections of striatum of mice treated with vehicle, 3NP+ vehicle, 3NP+compoundXII (10 mg/kg) and XII (10 mg/kg). Quantification of NeuN (A), GFAP (B) and Ibal (C) positive cells in the mouse striatum. Total average number of neurons, astrocytes and microglia is shown. Values are expressed as means±SEM for 6 animals per group.
as §4, with “investigation. […]” for “investigation.”

Structure (SMILES) | cytotoxic activity (cell viability, MTT) [1] | cytotoxic activity (cell viability, MTT) [2] | Nrf2 activation (ARE-luciferase activity; reactive electrophilic activity) [3] | cytotoxic activity (cell viability, MTT) [4] | clinical symptoms induced by 3-NP intoxication (hind limb clasping, locomotor activity, hind limb dystonia, truncal dystonia) [5] | protection from glutamate-induced cytotoxicity (cell viability, MTT) [6] | clinical symptoms in EAE mice [7] | up-regulation of pro-inflammatory markers COX-2, iNOS, TNFα and IL-6 in the striatum [8] | striatal neurons, NeuN staining ([9]; FIG. 12A) | GFAP+ cells (astrocytes) in striatum ([9]; FIG. 12B) | reactive microgliosis (Iba-1+ cells) in striatum ([9]; FIG. 12C)
CCCCCC1=CC(=O)C(C/C=C(\C)CCC=C(C)C)=C(O)C1=O [CBG-Q, Cannabigerol hydroxy quinone] | cytotoxic activity | cytotoxic activity | induces activation | cytotoxic activity | unable to prevent the clinical symptoms |  |  |  |  |  | 
CCCCCC1=C(C2=C(CCCCC)C(=O)C(O)=C(C/C=C(\C)CCC=C(C)C)C2=O)C(=O)C(C/C=C(\C)CCC=C(C)C)=C(O)C1=O [Compound XII, 3,3′-bis((E)-3,7-dimethylocta-2,6-dienyl)-4,4′-dihydroxy-6,6′-dipentyl-1,1′-bi(cyclohexa-3,6-diene)-2,2′,5,5′-tetraone] |  |  |  |  | clearly alleviates such symptomatology | protect neuronal cells from glutamate-induced apoptosis | alleviated the clinical symptoms in EAE mice to the same extent than compound III | attenuated the up-regulation | preservation of striatal neurons | counteracted the lost of GFAP^+ cells | prevented the induction of reactive microgliosis
